This is an account of results in US9802949B2, “Fused ring compounds as hepatitis C virus inhibitors, pharmaceutical compositions and uses thereof” (SUNSHINE LAKE PHARMA CO., LTD., priority 2012, dated 2017).

One assay deals with HCV GT1a replicon. Nature of the assay: HCV replicon assay (Huh-7 cells stably transfected with HCV GT1a replicon; luciferase or NEO gene qPCR readout). The assay is classed as cell-based. The note with it: Hepatitis C virus, HCV 1a genotype replicon, 72 hours. As to the method: (§1) HCV Replicon System was utilized as a screening model in the present disclosure to evaluate the antivirus effects of the compounds disclosed herein against HCV. HCV Replicon assay was first described in Science, 1999, 285 (5424), 110-3. […] To determine the potential anti-HCV effects of the test compounds, luciferase assay and antibiotic Neomycin resistance gene were tested according to the method described in Science. 1999 Jul. 2; 285 (5424), 110-3 and J. Virol. 2003 March; 77 (5), 3007-19.
(§2) In a word, the compounds disclosed herein were tested by using human hepatic carcinoma cell line Huh-7 which is transfected stably with HCV GT1a, GT1b or GT2a replicon respectively, and resistant cells of Y93H, L31F, P32L or I302V and wild-type cells HCV 1b. HCV Replicon System disclosed herein contains G418 resistance gene NEO and Luciferase Reporter Gene, and the level of HCV replication in host cells is detected and characterized by the expression level of the NEO gene or Luciferase Reporter Gene, so the effects of the compounds herein inhibit HCV replication can be evaluated in this system. In this article, a real-time quantitative polymerase chain reaction (qPCR) method was used to detect NEO gene expression level, and chemiluminescence method was used to test Luciferase Reporter Gene expression level.
(§3) 1. Test Method for Measuring EC50 of the Compounds Based on Luciferase Assay.
(§4) The Huh-7 cells transfected with HCV replicons system were seeded into 96-well plates (8,000 cells in 125 μL/well) respectively; each test compound was diluted to desired concentration using 5-fold serial dilutions protocol, 10 doses in duplicate, and added to wells with POD™ 810 Plate Assembler. The plates were incubated in a CO2 incubator for 72 hours; after that, 40 μL of Luciferase assay substrate (Promega Bright-Glo) was added to each well, and detected by a chemiluminescence detection system (Topcount Microplate Scintillation and Luminescence Counter) 5 minutes later; the EC50 (half-maximal effective concentration, concentration for 50% of maximal effect) values of test compounds were analyzed by GraphPad Prism software. In this paper, experiments were repeated twice and set the wells without compounds as negative control.
(§5) 2. Test Method for Measuring EC50 of the Compounds by Detecting Antibiotic G418 Resistance Gene NEO Gene.
(§6) The Huh-7 cells transfected with HCV replicons system were seeded into 96-well plates (8,000 cells in 125 μL/well) respectively; each test compound was diluted to desired concentration using 5-fold serial dilutions protocol, 10 doses in duplicate, and added to each well with POD™ 810 Plate Assembler; the cells were incubated in a CO2 incubator for 72 hours; and detected the expression level of the NEO gene expression with real-time quantitative PCR later; the EC50 (half-maximal effective concentration, concentration for 50% of maximal effect) values of test compounds were analyzed by GraphPad Prism software, respectively. In this paper, experiments were repeated twice and set the wells without compounds as negative control.
On the technique in general: In antiviral work, replicon cells carry a viral genome segment that copies itself.

The subject of the next assay is HCV GT1b replicon. Kind of assay: HCV replicon assay (Huh-7 cells stably transfected with HCV GT1b replicon; luciferase or NEO gene qPCR readout). The assay is classed as cell-based. The note with it: Hepatitis C virus, HCV 1b genotype replicon, 72 hours. The procedure:
as §1, §2, §3, §4, §5, §6

A word on the EC50: it is the midpoint of the concentration-response curve. A low value points to a more potent agent. On to `COC(=O)N[C@@H](C)C(=O)N1CCCC1C1=Nc2cc(-c3ccc(-c4cnc([C@@H]5CCCN5C(=O)[C@H](C)NC(=O)OC)[nH]4)c4c3CC3CCC43)ccc2C2(COC2)N1` (stereo partly shown) [Example 5], for which the concentration for a half-maximal effect (EC50) came to 1.04 nM in the assay with HCV GT1a replicon and 0.119 nM in the assay with HCV GT1b replicon.

Regarding `COC(=O)N[C@H](C(=O)N1CCC[C@H]1c1cc(=O)c2cc(-c3ccc(-c4ccc(-c5cnc([C@@H]6CCCN6C(=O)[C@@H](NC(=O)OC)c6ccccc6)[nH]5)cc4)c4c3C3(C)CCC3C4)ccc2[nH]1)c1ccccc1` (stereo partly shown) [Example 30], the results for the EC50 with HCV GT1a replicon and in the assay on HCV GT1b replicon were 0.211 nM and 0.092 nM, respectively.

As to `COC(=O)N[C@H](C(=O)N1CCC[C@H]1c1ncc(-c2ccc(-c3ccc(-c4cnc([C@@H]5CCCN5C(=O)[C@@H](NC(=O)OC)C(C)C)[nH]4)c4c3C3CC(=O)CC3C4)cc2)[nH]1)C(C)C` (stereo partly shown) [Example 34], the EC50 was 0.075 nM in the assay on HCV GT1a replicon and 0.022 nM in the assay on HCV GT1b replicon.

Regarding `CC[C@H](C)[C@H](NC(=O)OC)C(=O)N1CCC[C@H]1C1=Nc2ccc(-c3ccc(-c4ccc5nc([C@@H]6CCCN6C(=O)[C@@H](NC(=O)OC)C(C)C)[nH]c5c4)c4c3CC3CCCC43)cc2S(=O)(=O)N1` (stereo partly shown) [Example 31], the EC50 turned out to be 0.083 nM in the assay on HCV GT1a replicon and 0.035 nM in the assay on HCV GT1b replicon.

For the compound `COC(=O)NC(C(=O)N1CCCC1c1ncc(-c2ccc(-c3ccc(-c4ccc5nc(C6CCCN6C(=O)C(NC(=O)OC)C(C)C)[nH]c5c4)c4c3C3CCC3C4)cc2)[nH]1)C(C)C` (stereo not shown) [Example 38], the values for the half-maximal effective concentration (EC50) with HCV GT1a replicon and in the assay on HCV GT1b replicon were 0.058 nM and 0.013 nM, respectively.

Consider `COC(=O)N[C@H](C(=O)N1CCC[C@H]1c1ncc(-c2ccc(-c3sc(-c4ccc5nc([C@@H]6CCCN6C(=O)[C@@H](NC(=O)OC)C(C)C)[nH]c5c4)c4c3C3CCC3C4)cc2)[nH]1)C(C)C` (stereo partly shown) [Example 26], for which the EC50 was found to be 0.832 nM in the assay on HCV GT1a replicon and 0.048 nM in the assay on HCV GT1b replicon.

Regarding `COC(=O)N[C@H](C(=O)N1CCC[C@H]1c1ncc(-c2ccc(-c3ccc(-c4cnc([C@@H]5CCCN5C(=O)[C@@H](NC(=O)OC)C(C)C)[nH]4)c4c3C3CCC3C4)cc2)[nH]1)C(C)C` (stereo partly shown) [Example 1], the EC50 was 0.605 nM with HCV GT1a replicon and 0.005 nM in the assay on HCV GT1b replicon.

As for `COC(=O)N[C@H](C(=O)N1CCC[C@H]1c1ncc(-c2ccc(-c3ccc(-c4ccc5nc([C@@H]6CCCN6C(=O)[C@@H](NC(=O)OC)C(C)C)[nH]c5c4)c4c3C3CCC3C4)c3ccccc23)[nH]1)C(C)C` (stereo partly shown) [Example 23], the concentration giving a half-maximal response (EC50) in the assay with HCV GT1a replicon was found to be 0.449 nM; with HCV GT1b replicon, 0.05 nM.

On to `COC(=O)N[C@H](C(=O)N1CCCC1c1nc2ccc(-c3ccc(-c4ccc5nc([C@@H]6CCCN6C(=O)[C@@H](NC(=O)OC)C(C)C)[nH]c5c4)c4c3C3C(=O)CCC3C4)cc2[nH]1)C(C)C` (stereo partly shown) [Example 32], for which the EC50 in the assay with HCV GT1a replicon came to 0.063 nM; with HCV GT1b replicon, 0.026 nM.

For `COC(=O)N[C@H](C(=O)N1CCCC[C@H]1c1ncc(-c2ccc(-c3ccc(-c4ccc5nc([C@@H]6CCCCN6C(=O)[C@@H](NC(=O)OC)C(C)C)[nH]c5c4)c4c3C3CCC3C4)cc2)[nH]1)C(C)C` (stereo partly shown) [Example 13], the EC50 in the assay on HCV GT1a replicon was determined as 0.418 nM; in the assay on HCV GT1b replicon it was 0.206 nM.

As for `COC(=O)N[C@H](C(=O)N1CCC[C@H]1C1=Nc2cc(-c3ccc(C#Cc4cnc([C@@H]5CCCN5C(=O)[C@@H](NC(=O)OC)C5CCCCC5)[nH]4)c4c3CC3C(=O)CC43)ccc2C(C)(C)N1)C1CCCCC1` (stereo partly shown) [Example 29], the EC50 was 7.55 nM in the assay with HCV GT1a replicon and 0.309 nM in the assay on HCV GT1b replicon.
